Columns and labels:
[1] = test system: Cx43 mRNA; test: Real-Time PCR of Cx43 mRNA at skin wound sites; assay type: in vivo, mice
Description: (§1) Male, 8 week old, ICR mice were used in the following experiments. All the mice were kept under specific pathogen-free conditions in an environmentally controlled clean room at University College London and all the experiments were carried out under UK Home Office regulations. Mice were anaesthetized by halothane inhalation. Four full-thickness excisional wounds of 6 mm diameter were made on the shaved back on either side of the dorsal midline with a 6 mm biopsy punch (Kai Industries). To each pair of wounds a single topical application of 50 μl of 1 μM Cx43 as ODN (SEQ. ID No. 2) (Sigma-Genosys) in 30% Pluronic F-127 gel (Sigma-Aldrich), chilled on ice, was made to one wound, and an identical application of 1 μM sense control sODNs was made to the other. […] R. and Becker, D. L. (2003). Targeting connexin 43 expression accelerates the rate of wound repair. Curr Biol 13, 1697-703). Each wound region was digitally photographed at the indicated time intervals, and the areas of the wounds were calculated. All wound areas were expressed as percentages of the initial wound areas. In some series of experiments, wounds and their surrounding area, including the scab and epithelial margins, were harvested with an 8 mm biopsy punch (Kai Industries) at the indicated time intervals after mice were killed with an overdose of chloroform. A minimum of eight mice were used for each time point examined.
Total RNA was extracted from skin wound samples using TRIzol Reagent (Invitrogen), according to the manufacturer's instructions. Ten micrograms of total RNA was reverse-transcribed into cDNA using the SuperScript First-Strand Synthesis System for RT-PCR (Invitrogen).
Gene specific primers and probe were obtained as TaqMan® Gene Expression Assays (Applied Biosystems) for Cx43, Ccl2, Co1α1, TNFα and TGFβ1. The enzyme and buffer system was purchased as TaqMan® Universal PCR Master Mix (Applied Biosystems). Each sample was analyzed in duplicate. Amplification and real-time detection was performed in the DNA Engine Opticon®2 (MJ Research Inc.). […]

[2] = test system: Cx43 protein; test: Cx43 protein levels / immunostaining at skin wound sites; assay type: in vivo, mice
Description: as §1
Immunostaining for connexin 43, blood vessels or a smooth muscle actin was carried out on cryostat sections of wounds. Sections were fixed in acetone at 4° C. for 5 minutes prior to blocking for 45 minutes. Incubation in primary antibody was for one hour at the following dilutions: rabbit anti-Cx43 (Sigma) 1:3,000; isoLectin B_FITC 1:2000; von Willebrand Factor (rabbit Dako) 1:400; anti-α smooth muscle actin (Sigma) 1:400 at room temperature. Sections were washed for 3×5 minutes in PBS before a one hour incubation in anti-rabbit-FITC secondary antibody (Dako) 1:200 at room temperature. Washing 3×5 minutes in PBS, in some cases with 1 μM bis-benzimide (Sigma) in the first wash as a nuclear counter stain, and mounted in Citifluor (Citifluor, London, UK). Sections were imaged by confocal microscopy with all parameters kept constant to allow direct comparison of digital images.

[3] = test system: F4/80-positive macrophages; test: Macrophage recruitment into wound site (F4/80 immunohistochemistry); assay type: in vivo, mice
Description: as §1, with “In some series of experiments, wounds and their surrounding area, including the scab and epithelial margins, were harvested with an 8 mm biopsy punch (Kai Industries) at the indicated time intervals after mice were killed with an overdose of chloroform. A minimum of eight mice were used for each time point examined.” left out
A treatment-blinded observer counted MPO-positive neutrophils and F4/80-positive macrophages in the wound bed (defined as the area surrounded by unwounded skin, fascia, regenerated epidermis, and eschar) in 3 random high-power fields of 0.332 mm^2. […]

[4] = test system: TNF-α mRNA; test: Real-Time PCR of TNF-α at wound sites; assay type: in vivo, mice; details: day 7; P<0.05 versus control sODN
Description: as §1, with “In some series of experiments, wounds and their surrounding area, including the scab and epithelial margins, were harvested with an 8 mm biopsy punch (Kai Industries) at the indicated time intervals after mice were killed with an overdose of chloroform. A minimum of eight mice were used for each time point examined.” left out
(§2) Gene specific primers and probe were obtained as TaqMan® Gene Expression Assays (Applied Biosystems) for Cx43, Ccl2, Co1α1, TNFα and TGFβ1. […] Each sample was analyzed in duplicate. […]

[5] = test system: TGF-β1 mRNA; test: Real-Time PCR of TGF-β1 at wound sites; assay type: in vivo, mice
Description: as §1, with “In some series of experiments, wounds and their surrounding area, including the scab and epithelial margins, were harvested with an 8 mm biopsy punch (Kai Industries) at the indicated time intervals after mice were killed with an overdose of chloroform. A minimum of eight mice were used for each time point examined.” left out
as §2

[6] = test system: Cx43 protein; test: Cx43 protein knockdown in confluent fibroblast cultures; assay type: cell-based; details: within two hours
Description: Swiss 3T3 fibroblasts were grown in Dulbecco's modified Eagle's medium (DMEM; Gibco) supplemented with 10% fetal calf serum (Labtech) and 1% penicillinstreptomycin solution (Sigma, Poole) in a 5% CO2 incubator at 37° C. Unless otherwise stated, the cells were maintained in this medium for most experiments. The cells were passaged by trypsinization and used at passages 6-10 at a confluency of Z 90%. Cells were plated on 13 mm glass coverslips in 24-well dishes (Nunc) with 4−5×10^5 cells per well containing 1 ml of medium. Cells reached confluency after 72 hours and were then used for experimentation.
In order to knock down Cx43 expression in the fibroblasts the media was replaced with serum-free DMEM containing either 20 μM asODNs or 20 μM control sODNs. This was incubated for two hours before being replaced with serum containing DMEM. The wounding assay was then carried out as above.

GTAATTGCGGCAGGAGGAATTGTTTCTGTC (antisense GTAATTGCGGCAGGAGGAATTGTTTCTGTC; in Pluronic F-127 gel, further chemistry not given here) [Cx43 asODN]
expression of Cx43 mRNA relative to GAPDH ([1]; 7 days after the injury): 4.6 units | reduction of Cx43 mRNA versus control sODN-treated wounds ([1]; one day after injury, P<0.05): 37% | expression of Cx43 mRNA relative to GAPDH ([1]; one day after injury, single topical 50 μl of 1 μM in 30% Pluronic F-127 gel): 2.95 units | Cx43 protein immunostaining in epidermis and dermis of wound edge ([2]; day 1, compared to controls): very low levels | Cx43 protein immunostaining of wound ([2]; day 2): some Cx43 staining had returned to the dermis of the Cx43 asODN-treated wound but the level was still very low in the epidermis | Cx43 staining, treated versus untreated ([2]; day 7): no obvious difference | duration of Cx43 protein down-regulation in wound-site epidermis and dermis ([2]; delivered from Pluronic F-127 slow-release gel): at least 24 hours | protein levels of Cx43 in the epidermis and dermis ([2]; within two hours of treatment, delivery from the time of injury): markedly reduced | reduction of number of macrophages versus control sODN-treated wounds ([3]; day 2): 33% | reduction of number of macrophages versus control sODN-treated wounds ([3]; day 7): 32% | expression level of TNF-α mRNA [4]: significantly reduced | expression of TGF-β1 mRNA versus control sODN-treated wounds ([5]; day 2 after the injury, P<0.05): significantly increased | expression of TGF-β1 mRNA, control versus treated wounds ([5]; days 1 and 7): no difference | knockdown of Cx43 protein [6]: 95%
